Measured values as given in PubChem BioAssay (NCI).
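48-hour exposure; five concentrations; linearly interpolated endpoints. TGI: concentration producing complete growth inhibition.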

Assays:
Assay in all cases: DTP human tumour cell line panel, 48 h
MDA-MB-231 breast = tested on: MDA-MB-231 breast
SK-MEL-5 melanoma = tested on: SK-MEL-5 melanoma
HOP-92 NSCLC = tested on: HOP-92 NSCLC
SK-MEL-28 melanoma = tested on: SK-MEL-28 melanoma
MDA-N = tested on: MDA-N
OVCAR-8 ovarian = tested on: OVCAR-8 ovarian
DU-145 prostate = tested on: DU-145 prostate
HCT-15 colon = tested on: HCT-15 colon
OVCAR-4 ovarian = tested on: OVCAR-4 ovarian
EKVX NSCLC = tested on: EKVX NSCLC
OVCAR-5 ovarian = tested on: OVCAR-5 ovarian
NCI/ADR-RES ovarian = tested on: NCI/ADR-RES ovarian
OVCAR-3 ovarian = tested on: OVCAR-3 ovarian
HOP-62 NSCLC = tested on: HOP-62 NSCLC
A549 NSCLC = tested on: A549 NSCLC
BT-549 breast = tested on: BT-549 breast
RPMI-8226 leukemia = tested on: RPMI-8226 leukemia
M14 melanoma = tested on: M14 melanoma
ACHN renal = tested on: ACHN renal
PC-3 prostate = tested on: PC-3 prostate
SNB-75 CNS = tested on: SNB-75 CNS
MALME-3M melanoma = tested on: MALME-3M melanoma
IGROV1 ovarian = tested on: IGROV1 ovarian
UO-31 renal = tested on: UO-31 renal
SK-OV-3 ovarian = tested on: SK-OV-3 ovarian
SF-539 CNS = tested on: SF-539 CNS
UACC-257 melanoma = tested on: UACC-257 melanoma
SK-MEL-2 melanoma = tested on: SK-MEL-2 melanoma
HL-60(TB) leukemia = tested on: HL-60(TB) leukemia
CAKI-1 renal = tested on: CAKI-1 renal
K-562 leukemia = tested on: K-562 leukemia
TK-10 renal = tested on: TK-10 renal
COLO 205 colon = tested on: COLO 205 colon
MCF7 breast = tested on: MCF7 breast
786-0 renal = tested on: 786-0 renal
UACC-62 melanoma = tested on: UACC-62 melanoma
HCT-116 colon = tested on: HCT-116 colon
U251 CNS = tested on: U251 CNS
NCI-H460 lung = tested on: NCI-H460 lung
SF-268 CNS = tested on: SF-268 CNS
T-47D breast = tested on: T-47D breast
SR leukemia = tested on: SR leukemia
KM12 colon = tested on: KM12 colon
SNB-19 CNS = tested on: SNB-19 CNS
NCI-H226 lung = tested on: NCI-H226 lung
MDA-MB-435 = tested on: MDA-MB-435
NCI-H23 lung = tested on: NCI-H23 lung
NCI-H522 lung = tested on: NCI-H522 lung
HCC-2998 colon = tested on: HCC-2998 colon
A498 renal = tested on: A498 renal
SW-620 colon = tested on: SW-620 colon
CCRF-CEM leukemia = tested on: CCRF-CEM leukemia
RXF 393 renal = tested on: RXF 393 renal
MOLT-4 leukemia = tested on: MOLT-4 leukemia
SN12C renal = tested on: SN12C renal
SF-295 CNS = tested on: SF-295 CNS
LOX IMVI melanoma = tested on: LOX IMVI melanoma
HT29 colon = tested on: HT29 colon
HS 578T breast = tested on: HS 578T breast

With O=C(NCCCNCCCNC(=O)c1cc(-c2ccccc2)nc2ccccc12)c1cc(-c2ccccc2)nc2ccccc12 the TGI (MDA-MB-231 breast) was 3.14 µM, the TGI (SK-MEL-5 melanoma) was 3.45 µM and the TGI (HOP-92 NSCLC) was 4.17 µM. For the same molecule, the TGI (SK-MEL-28 melanoma) was 3.09 µM, the TGI (MDA-N) was 3.13 µM and the TGI (OVCAR-8 ovarian) was over 100 µM. The TGI (DU-145 prostate) was 3.08 µM, the TGI (HCT-15 colon) was over 100 µM and the TGI (OVCAR-4 ovarian) was 3.32 µM. For the same molecule, the TGI (EKVX NSCLC) was 3.32 µM, the TGI (OVCAR-5 ovarian) was 3.53 µM and the TGI (NCI/ADR-RES ovarian) was 4.13 µM. The TGI (OVCAR-3 ovarian) was 3.23 µM, the TGI (HOP-62 NSCLC) was 2.16 µM and the TGI (A549 NSCLC) was 3.34 µM. It also gave a TGI (BT-549 breast) of over 23.7 µM, a TGI (RPMI-8226 leukemia) of 4.78 µM and a TGI (M14 melanoma) of 3.19 µM. It also gave a TGI (ACHN renal) of 3.2 µM, a TGI (PC-3 prostate) of 2.99 µM and a TGI (SNB-75 CNS) of 2.96 µM. For the same molecule, the TGI (MALME-3M melanoma) was 3.5 µM, the TGI (IGROV1 ovarian) was 3.19 µM and the TGI (UO-31 renal) was 3.38 µM. It also gave a TGI (SK-OV-3 ovarian) of 4.95 µM, a TGI (SF-539 CNS) of over 100 µM and a TGI (UACC-257 melanoma) of 3.73 µM. The TGI (SK-MEL-2 melanoma) was 3.55 µM, the TGI (HL-60(TB) leukemia) was 3.16 µM and the TGI (CAKI-1 renal) was 3.7 µM. The TGI (K-562 leukemia) was 3.53 µM and the TGI (TK-10 renal) was 3.22 µM.
Molecule O=c1[nH]nc(-c2ccccc2)c2[nH]c3c4ccccc4ccc3c12 has a TGI (COLO 205 colon) of over 100 µM, a TGI (MCF7 breast) of over 100 µM and a TGI (SK-MEL-5 melanoma) of over 100 µM. It also gave a TGI (786-0 renal) of 48.1 µM, a TGI (UACC-62 melanoma) of over 100 µM and a TGI (HCT-116 colon) of over 100 µM. The TGI (U251 CNS) was over 100 µM, the TGI (HOP-92 NSCLC) was over 100 µM and the TGI (NCI-H460 lung) was over 100 µM. For the same molecule, the TGI (MDA-N) was 0.545 µM, the TGI (SF-268 CNS) was over 100 µM and the TGI (HCT-15 colon) was over 100 µM. For the same molecule, the TGI (T-47D breast) was over 100 µM, the TGI (EKVX NSCLC) was over 100 µM and the TGI (SR leukemia) was over 100 µM. The TGI (KM12 colon) was over 100 µM, the TGI (SNB-19 CNS) was over 100 µM and the TGI (NCI-H226 lung) was over 100 µM. For the same molecule, the TGI (MDA-MB-435) was 0.673 µM, the TGI (NCI-H23 lung) was 32.7 µM and the TGI (HOP-62 NSCLC) was over 100 µM. For the same molecule, the TGI (NCI-H522 lung) was over 100 µM, the TGI (A549 NSCLC) was over 100 µM and the TGI (RPMI-8226 leukemia) was 3.57 µM. For the same molecule, the TGI (HCC-2998 colon) was 4.81 µM, the TGI (A498 renal) was over 100 µM and the TGI (SW-620 colon) was over 100 µM. It also gave a TGI (M14 melanoma) of over 100 µM, a TGI (ACHN renal) of over 100 µM and a TGI (CCRF-CEM leukemia) of over 100 µM. It also gave a TGI (PC-3 prostate) of over 100 µM, a TGI (RXF 393 renal) of over 100 µM and a TGI (SNB-75 CNS) of over 100 µM. The TGI (MALME-3M melanoma) was over 100 µM, the TGI (IGROV1 ovarian) was over 100 µM and the TGI (SK-OV-3 ovarian) was over 100 µM. For the same molecule, the TGI (MOLT-4 leukemia) was over 100 µM, the TGI (SF-539 CNS) was 3.17 µM and the TGI (UACC-257 melanoma) was over 100 µM. The TGI (SK-MEL-2 melanoma) was over 100 µM, the TGI (HL-60(TB) leukemia) was over 100 µM and the TGI (K-562 leukemia) was over 100 µM. For the same molecule, the TGI (SN12C renal) was over 100 µM.
O=C1/C(=N/O)Cc2c(Br)ccc(Br)c21 gave a TGI (MCF7 breast) of over 100 µM, a TGI (MDA-MB-231 breast) of over 100 µM and a TGI (SF-295 CNS) of over 100 µM. It also gave a TGI (SK-MEL-5 melanoma) of over 100 µM, a TGI (786-0 renal) of over 100 µM and a TGI (HCT-116 colon) of over 100 µM. It also gave a TGI (U251 CNS) of over 100 µM, a TGI (HOP-92 NSCLC) of over 100 µM and a TGI (SK-MEL-28 melanoma) of over 100 µM. For the same molecule, the TGI (NCI-H460 lung) was over 100 µM, the TGI (MDA-N) was over 100 µM and the TGI (OVCAR-8 ovarian) was over 100 µM. It also gave a TGI (SF-268 CNS) of over 100 µM, a TGI (DU-145 prostate) of over 100 µM and a TGI (HCT-15 colon) of over 100 µM. It also gave a TGI (OVCAR-4 ovarian) of over 100 µM, a TGI (LOX IMVI melanoma) of over 100 µM and a TGI (T-47D breast) of over 100 µM. For the same molecule, the TGI (EKVX NSCLC) was over 100 µM, the TGI (SR leukemia) was 74.4 µM and the TGI (KM12 colon) was over 100 µM. It also gave a TGI (OVCAR-5 ovarian) of over 100 µM, a TGI (NCI/ADR-RES ovarian) of over 100 µM and a TGI (NCI-H226 lung) of over 100 µM. For the same molecule, the TGI (MDA-MB-435) was over 100 µM, the TGI (OVCAR-3 ovarian) was 70.3 µM and the TGI (NCI-H23 lung) was over 100 µM. The TGI (HOP-62 NSCLC) was over 100 µM, the TGI (NCI-H522 lung) was 91.3 µM and the TGI (RPMI-8226 leukemia) was over 100 µM. It also gave a TGI (HCC-2998 colon) of over 100 µM, a TGI (A498 renal) of over 100 µM and a TGI (SW-620 colon) of over 100 µM. It also gave a TGI (M14 melanoma) of over 100 µM, a TGI (ACHN renal) of over 100 µM and a TGI (CCRF-CEM leukemia) of over 100 µM. The TGI (PC-3 prostate) was over 100 µM, the TGI (RXF 393 renal) was over 100 µM and the TGI (SNB-75 CNS) was over 100 µM. The TGI (HT29 colon) was over 100 µM, the TGI (IGROV1 ovarian) was over 100 µM and the TGI (UO-31 renal) was over 100 µM. For the same molecule, the TGI (SK-OV-3 ovarian) was over 100 µM, the TGI (MOLT-4 leukemia) was 82.4 µM and the TGI (SF-539 CNS) was over 100 µM. For the same molecule, the TGI (HS 578T breast) was over 100 µM, the TGI (UACC-257 melanoma) was over 100 µM and the TGI (SK-MEL-2 melanoma) was 48.4 µM. The TGI (HL-60(TB) leukemia) was 76.3 µM, the TGI (CAKI-1 renal) was over 100 µM and the TGI (K-562 leukemia) was 84.5 µM. For the same molecule, the TGI (TK-10 renal) was over 100 µM.
